This is an account of results in US9493438B2, “4,4-difluoro-piperidine-compounds” (ROTTAPHARM BIOTECH S.R.L., priority 2012, dated 2016).

Usually Kb stands for the equilibrium dissociation constant of an antagonist, usually derived from a functional assay.

The assay deals with T1, human OX1 receptors (Homo sapiens, UniProt O43613).
T1 construct: expressed in transfected cells; host or cells: CHO cells
T1 sequence (O43613 1-425): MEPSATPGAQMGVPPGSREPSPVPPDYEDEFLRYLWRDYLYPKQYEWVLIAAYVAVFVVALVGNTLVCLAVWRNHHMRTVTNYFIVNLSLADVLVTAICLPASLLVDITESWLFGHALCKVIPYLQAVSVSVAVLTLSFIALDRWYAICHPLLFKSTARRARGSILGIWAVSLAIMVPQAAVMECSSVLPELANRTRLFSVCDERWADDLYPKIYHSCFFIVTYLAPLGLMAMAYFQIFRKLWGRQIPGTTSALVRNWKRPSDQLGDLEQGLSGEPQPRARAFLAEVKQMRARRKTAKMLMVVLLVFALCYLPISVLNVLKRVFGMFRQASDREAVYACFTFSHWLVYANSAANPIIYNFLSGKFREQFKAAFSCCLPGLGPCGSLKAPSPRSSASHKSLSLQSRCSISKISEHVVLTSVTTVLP
Briefly: antagonistic activity against human OX1 receptor, [Ca2+]i fluorimetry in transfected CHO cells. It is filed as cell-based. The note with it: CHO cells transfected with human recombinant OX1; activated with orexin-A 3 nM; pKb = co-logarithm of apparent dissociation constant (modified Cheng Prusoff). The procedure:
Thus the plate was loaded with the calcium dye (Fluo-4NW/probenecid in HBSS, Hepes 20 mM, pH 7.4; Invitrogen) at 37° C. for 60 min. Afterward the temperature was equilibrated at 22° C. for 15 min and the [Ca2+]i measured directly on the plate by using a fluorescent plate reader (CeliLux Perkin Elmer).
Invention compounds were dissolved in DMSO, diluted in HBSS (DMSO, 0.3% final) and added to the wells. After 5 min CHO cells were activated with orexin-A, 3 nM while HEK-293 cells were activated with orexin-B, 10 nM. […] The antagonistic activity has been expressed as pKb (co-logarithm of the apparent dissociation constant calculated by using the modified Cheng Prusoff equation). The results are expressed as percent of control specific […] response ((measured specific response/control specific agonist response)×100) obtained in the presence of the test compounds.
The IC50 values (concentration causing a half-maximal inhibition of the control specific agonist response) were determinated by non-linear regression analysis of the concentration curves generated with mean replicate values using hill equation curve fitting. The IC50 values are obtained by the arithmetical mean of at least two experiments.
On to `Cc1ccc(-n2nccn2)c(C(=O)N2CCC(F)(F)CC2CNc2ccc(Cl)cn2)n1` (single isomer, unassigned; isomer a) [Compound 8, (2-(((5-chloropyridin-2-yl)amino)methyl)-4,4-difluoropiperidin-1-yl)(6-methyl-3-(2H-1,2,3-triazol-2-yl)pyridin-2-yl)methanone (isomer A)], for which the Kb was 1.58 nM.

Turning to `Cc1ccc(-c2cccnc2)c(C(=O)N2CCC(F)(F)CC2CNc2ccc(C(F)(F)F)cn2)n1` (racemic) [Compound 50], the antagonist equilibrium constant (Kb) is 5.01 nM. `Cc1ccc(-c2ncccn2)c(C(=O)N2CCC(F)(F)CC2COc2ccc(C(F)(F)F)cn2)n1` (racemic) [Compound 48, (±)(4,4-difluoro-2-(((5-(trifluoromethyl)pyridine-2-yl)oxy)methyl)piperidin-1-yl)(6-methyl-3-(pyrimidin-2-yl)pyridin-2-yl)methanone]: the Kb is 7.94 nM. For the compound `O=C(c1cc(Cl)ccc1-c1ncccn1)N1CCC(F)(F)CC1CNc1ccc(Cl)cn1` (racemic) [Compound 19, (RS)(5-chloro-2-(pyrimidin-2-yl)phenyl)(2-(((5-chloropyridin-2-yl)amino)methyl)-4,4-difluoropiperidin-1-yl)methanone], the Kb was 5.01 nM.

For `Cc1ccc(-c2ncccn2)c(C(=O)N2CCC(F)(F)CC2CNc2ccc(Cl)cn2)n1` (racemic) [Compound 14, (RS)(2-(((5-chloropyridin-2-yl)amino)methyl)-4,4-difluoropiperidin-1-yl)(6-methyl-3-(pyrimidin-2-yl)pyridin-2-yl)methanone], the Kb was 2.51 nM. On the same count and under the same terms, next, `CCOc1ccccc1C(=O)N1CCC(F)(F)CC1CNc1ccc(Cl)cn1` (racemic) [Compound 10, (RS)(2-(((5-chloropyridin-2-yl)amino)methyl)-4,4-difluoropiperidin-1-yl)(2-ethoxyphenyl)methanone]: 7.94 nM; `Cc1ccc(-c2ncccn2)c(C(=O)N2CCC(F)(F)CC2CNc2ccc(C#N)cn2)n1` (racemic) [Compound 29]: 15.8 nM; `Cc1ccc(-c2ncccn2)c(C(=O)N2CCC(F)(F)CC2CNc2ccc(Cl)cn2)n1` (single isomer, unassigned; isomer b) [Compound 17, (2-(((5-chloropyridin-2-yl)amino)methyl)-4,4-difluoropiperidin-1-yl)(6-methyl-3-(pyrimidin-2-yl)pyridin-2-yl)methanone (isomer B)]: 100 nM. `Cc1ccc(-c2ncccn2)c(C(=O)N2CCC(F)(F)CC2CNc2ccc(Cl)cn2)c1` (racemic) [Compound 6, (RS)(2-(((5-chloropyridin-2-yl)amino)methyl)-4,4-difluoropiperidin-1-yl)(5-methyl-2-(pyrimidin-2-yl)phenyl)methanone]: the Kb is 5.01 nM.

For the compound `Cc1ccc(-c2ncccn2)c(C(=O)N2CCC(F)(F)CC2CNc2ccc(Cl)cn2)c1` (single isomer, unassigned; isomer a) [Compound 7, (2-(((5-chloropyridin-2-yl)amino)methyl)-4,4-difluoropiperidin-1-yl)(5-methyl-2-(pyrimidin-2-yl)phenyl)methanone (isomer A)], the antagonist equilibrium constant (Kb) was 2.51 nM. Take `Cc1ccc(-c2ccncc2)c(C(=O)N2CCC(F)(F)CC2CNc2ccc(C(F)(F)F)cn2)n1` (racemic) [Compound 52, (RS) (4,4-difluoro-2-(((5-(trifluoromethyl)pyridin-2-yl)amino)methyl)piperidin-1-yl)(6-methyl-[3,4′-bipyridin]-2-yl)methanone]: the antagonist equilibrium constant (Kb) was 39.8 nM. For the compound `O=C(c1nc(C(F)(F)F)ccc1-c1ncccn1)N1CCC(F)(F)CC1CNc1ccc(C(F)(F)F)cn1` (single isomer, unassigned; isomer a) [Compound 40, (4,4-difluoro-2-(((5-(trifluoromethyl)pyridin-2-yl)amino)methyl)piperidin-1-yl)(3-(pyrimidin-2-yl)-6-(trifluoromethyl)pyridin-2-yl)methanone (isomer A)], the Kb is 63.1 nM. `Cc1nc(C(=O)N2CCC(F)(F)CC2CNc2ccc(Cl)cn2)c(-c2ccccc2)s1` (single isomer, unassigned; isomer a) [Compound 2, (2-(((5-chloropyridin-2-yl)amino)methyl)-4,4-difluoropiperidin-1-yl)(2-methyl-5-phenylthiazol-4-yl)methanone (isomer A)]: the Kb is 2 nM. Turning to `O=C(c1nccc2ccccc12)N1CCC(F)(F)CC1CNc1ccc(Cl)cn1` (single isomer, unassigned; isomer a) [Compound 23, (2-(((5-chloropyridin-2-yl)amino)methyl)-4,4-difluoropiperidin-1-yl)(isoquinolin-1-yl)methanone (isomer A)], the antagonist equilibrium constant (Kb) is 79.4 nM.

Turning to `Cc1ncc(-c2ccc(F)cc2C(=O)N2CCC(F)(F)CC2CNc2ccc(C(F)(F)F)cn2)cn1` (racemic) [Compound 30, (RS)(4,4-difluoro-2-(((5-(trifluoromethyl)pyridin-2-yl)amino)methyl)piperidin-1-yl)(5-fluoro-2-(2-methylpyrimidin-5-yl)phenyl)methanone], the antagonist dissociation constant (Kb) was 25.1 nM. In the case of `Cc1ccc(-c2ccccc2)c(C(=O)N2CCC(F)(F)CC2CNc2ccc(C(F)(F)F)cn2)n1` (single isomer, unassigned; isomer a) [Compound 37, (4,4-difluoro-2-(((5-(trifluoromethyl)pyridin-2-yl)amino)methyl)piperidin-1-yl)(6-methyl-3-phenylpyridin-2-yl)methanone (isomer A)], the antagonist equilibrium constant (Kb) was 200 nM. `O=C(c1nccc2ccccc12)N1CCC(F)(F)CC1CNc1ccc(Cl)cn1` (racemic) [Compound 22, (RS)(2-(((5-chloropyridin-2-yl)amino)methyl)-4,4-difluoropiperidin-1-yl)(isoquinolin-1-yl)methanone]: the antagonist equilibrium constant (Kb) is 0.631 nM. On the same count and under the same terms, next, `Cc1ccc(-n2nccn2)c(C(=O)N2CCC(F)(F)CC2CNc2ccc(Cl)cn2)n1` (single isomer, unassigned; isomer b) [Compound 9, (2-(((5-chloropyridin-2-yl)amino)methyl)-4,4-difluoropiperidin-1-yl)(6-methyl-3-(2H-1,2,3-triazol-2-yl)pyridin-2-yl)methanone (isomer B)]: 15.8 nM. Consider `O=C(c1ccccc1OC1CCCC1)N1CCC(F)(F)CC1CNc1ccc(Cl)cn1` (racemic) [Compound 13, (RS)(2-(((5-chloropyridin-2-yl)amino)methyl)-4,4-difluoropiperidin-1-yl)(2-(cyclopentyloxy)phenyl)methanone], for which the Kb is 100 nM. As for “(RS)(4,4-difluoro-2-(((5-(trifluoromethyl)pyridin-2-yl)amino)methyl)piperidin-1-yl)(6-methyl-3-(pyrimidin-2-yl)pyridin-2-yl)methanone [Compound 42]”, the “PKb OX1” value was found to be 8.2.

For `Cc1nc(C(=O)N2CCC(F)(F)CC2CNc2ccc(Cl)cn2)c(-c2ccccc2)s1` (racemic) [Compound 1, (RS)(2-(((5-chloropyridin-2-yl)amino)methyl)-4,4-difluoropiperidin-1-yl)(2-methyl-5-phenylthiazol-4-yl)methanone], the Kb is 10 nM.

Regarding `O=C(c1nccc2ccccc12)N1CCC(F)(F)CC1CNc1ncc(C(F)(F)F)cc1F` (racemic) [Compound 33, (RS)(4,4-difluoro-2-(((3-fluoro-5-(trifluoromethyl)pyridin-2-yl)amino)methyl)piperidin-1-yl)(isoquinolin-1-yl)methanone], the antagonist equilibrium constant (Kb) is 2 nM.
